Test results: patent US20040224958A1, “Pyridopyrimidinone derivatives for treatment of neurodegenerative disease” (priority 2000, published 2004)

Row | SMILES | melting point [°C]
1 | O=c1ccc2cnc(Nc3ccc(N4CCSCC4)cc3)nc2n1C1CCCCC1 [Example 177, 8-Cyclohexyl-2-(4-thiomorpholin-4-yl-phenylamino)-8H-pyrido[2,3-d]pyrimidin-7-one] | 213 to 214
2 | O=c1ccc2cnc(Nc3cccc(N4CCCCC4)c3)nc2n1C1CCCCCC1 [Example 201, 8-Cycloheptyl-2-(3-piperidin-1-yl-phenylamino)-8H-pyrido[2,3-d]pyrimidin-7-one] | 123 to 124
3 | O=c1ccc2cnc(Nc3ccccc3)nc2n1C1CCCCCC1 [Example 155, 8-Cycloheptyl-2-phenylamino-8H-pyrido[2,3-d]pyrimidin-7-one] | 156 to 158
4 | O=c1ccc2cnc(Nc3ccc(N4CCC(CCCN5CCOCC5)CC4)cc3)nc2n1C1CC2CCC1C2 (stereo not shown) [Example 217, 8-Bicyclo[2.2.1]hept-2-yl-2-[4-[4-(3-morpholin-4-yl-propyl)-piperidin-1-yl]-phenylamino]-8H-pyrido[2,3-d]pyrimidin-7-one] | 185 to 186
5 | CCNc1nc(Nc2ccccc2)ncc1CCC(=O)OCC [Example 68, 3-(4-Ethylamino-2-phenylamino-pyrimidin-5-yl)propionic acid ethyl ester] | 106 to 107
6 | CCN(CC)CCOc1ccc(Nc2ncc3ccc(=O)n(C4CCCCC4)c3n2)cc1C [Example 150, 8-Cyclohexyl-2-[4-(2-diethylamino-ethoxy)-3-methyl-phenylamino]-8H-pyrido[2,3-d]pyrimidin-7-one] | 119 to 121
7 | O=c1ccc2cnc(Nc3ccc(N4CCCCC4)cc3)nc2n1C1CCCCC1 [Example 142, 8-Cyclohexyl-2-(4-piperidin-1-yl-phenylamino)-8H-pyrido[2,3-d]pyrimidin-7-one] | 198 to 200
8 | CC1CN(c2ccc(Nc3ncc4ccc(=O)n(C5CCCCC5)c4n3)cc2)CC(C)N1CCO (stereo not shown) [Example 143, 8-Cyclohexyl-2-{4-[4-(2-hydroxy-ethyl)-3,5-dimethyl-piperazin-1-yl]-phenylamino}-8H-pyrido[2,3-d]pyrimidin-7-one] | 175 to 177
9 | CCNc1ncc2ccc(=O)n(-c3ccccc3)c2n1 [Example 100, 2-Ethylamino-8-phenyl-8H-pyrido[2,3-d]pyrimidin-7-one] | 193 to 195
10 | CCN(CC)CCOc1ccc(Nc2ncc3ccc(=O)n(C4CCCCCC4)c3n2)cc1 [Example 156, 8-Cycloheptyl-2-[4-(2-diethylamino-ethoxy)-phenylamino]-8H-pyrido[2,3-d]pyrimidin-7-one] | 121 to 122
11 | O=c1ccc2cnc(Nc3ccc(N4CCCCC4)cc3)nc2n1CC1CCCCC1 [Example 183, 8-Cyclohexylmethyl-2-(4-piperidin-1-yl-phenylamino)-8H-pyrido[2,3-d]pyrimidin-7-one] | 212 to 213
12 | CN(C)CCCN1CCN(c2ccc(Nc3ncc4ccc(=O)n(C5CC6CCC5C6)c4n3)cc2)CC1 (stereo not shown) [Example 230, 8-Bicyclo[2.2.1]hept-2-yl-2-{4-[4-(3-dimethylamino-propyl)-piperazin-1-yl]-phenylamino}-8H-pyrido[2,3-d]pyrimidin-7-one] | 212 to 213
13 | CC(C)n1c(=O)ccc2cnc(Nc3ccc(O)cc3)nc21 [Example 112, 2-(4-Hydroxy-phenylamino)-8-isopropyl-8H-pyrido[2,3-d]pyrimidin-7-one] | 226 to 228
14 | O=c1ccc2cnc(Nc3cccc(OC(F)(F)C(F)F)c3)nc2n1C1CC2CCC1C2 (stereo not shown) [Example 213, 8-Bicyclo[2.2.1]hept-2-yl-2-[3-(1,1,2,2-tetrafluoro-ethoxy)-phenylamino]-8H-pyrido[2,3-d]pyrimidin-7-one] | 192
15 | O=c1ccc2cnc(Nc3ccc(N4CCCCC4)cc3)nc2n1CCCOC1CCCCO1 (stereo not shown) [Example 158] | 85 to 86
16 | CCn1c(=O)ccc2cnc(NCc3ccccc3)nc21 [Example 44, 2-Benzylamino-8-ethyl-8H-pyrido[2,3-d]pyrimidin-7-one] | 96 to 97
17 | O=c1ccc2cnc(Nc3ccc(N4CCCC(O)C4)cc3)nc2n1C1CCCC1 (stereo not shown) [Example 206, 8-Cyclopentyl-2-[4-(3-hydroxy-piperidin-1-yl)-phenylamino]-8H-pyrido[2,3-d]pyrimidin-7-one] | 178 to 179
18 | CN1CCN(c2ccc(Nc3ncc4ccc(=O)n(CCCOCc5ccccc5)c4n3)cc2)CC1 [Example 115, 8-(3-Benzyloxy-propyl)-2-[4-(4-methyl-piperazin-1-yl)-phenylamino]-8H-pyrido[2,3-d]pyrimidin-7-one] | 148 to 150
19 | Cn1c(=O)ccc2cnc(N)nc21 [Example 62, 2-Amino-8-methyl-8H-pyrido[2,3-d]pyrimidin-7-one] | 237 to 253
20 | O=c1ccc2cnc(Nc3ccc(N4CCC(CCN5CCOCC5)CC4)cc3)nc2n1C1CC2CCC1C2 (stereo not shown) [Example 259, 8-Bicyclo[2.2.1]hept-2-yl-2-[4-[4-(2-morpholin-4-yl-ethyl)-piperidin-1-yl]-phenylamino]-8H-pyrido[2,3-d]pyrimidin-7-one] | 223 to 224
21 | CC(C)n1c(=O)ccc2cnc(N)nc21 [Example 257, 2-Amino-8-isopropyl-8H-pyrido[2,3-d]pyrimidin-7-one] | 153
22 | CCn1c(=O)ccc2cnc(Nc3ccc(-c4ccccc4)cc3)nc21 [Example 49, 2-(Biphenyl-4-ylamino)-8-ethyl-8H-pyrido[2,3-d]pyrimidin-7-one] | 207 to 208

Row | SMILES | melting point [°C]
23 | CCN(CC)CCOc1ccc(Nc2ncc3ccc(=O)n(C(C)C)c3n2)cc1 [Example 59, 2-[4-(2-Diethylaminoethoxy)-phenylamino]-8-isopropyl-8H-pyrido[2,3-d]-pyrimidin-7-one] | 84 to 85
24 | O=c1ccc2cnc(Nc3ccc(N4CCCCC4)cc3)nc2n1C1CCCC1O (stereo not shown) [Example 242, 8-(2-Hydroxy-cyclopentyl)-2-(4-piperidin-1-yl-phenylamino)-8H-pyrido[2,3-d]pyrimidin-7-one] | 230 to 232
25 | O=c1ccc2cnc(Nc3ccc(-n4cccn4)cc3)nc2n1C1CC2CCC1C2 (stereo not shown) [Example 218, 8-Bicyclo[2.2.1]hept-2-yl-2-(4-pyrazol-1-yl-phenylamino)-8H-pyrido[2,3-d]pyrimidin-7-one] | 234 to 235
26 | CN1CCN(c2ccc(Nc3ncc4ccc(=O)n(-c5ccccc5)c4n3)cc2)CC1 [Example 113, 2-[4-(4-Methyl-piperazin-1-yl)-phenylamino]-8-phenyl-8H-pyrido[2,3-d]pyrimidin-7-one] | 259 to 262
27 | O=c1ccc2cnc(NC3CCCCC3)nc2n1C1CCCCC1 [Example 153, 8-Cyclohexyl-2-cyclohexylamino-8H-pyrido[2,3-d]pyrimidin-7-one] | 169 to 170
28 | CCCn1c(=O)ccc2cnc(Nc3ccccc3)nc21 [Example 41, 2-Phenylamino-8-propyl-8H-pyrido[2,3-d]pyrimidin-7-one] | 163 to 164
29 | O=c1ccc2cnc(Nc3ccccc3)nc2n1C1CC2CCC1C2 (stereo not shown) [Example 180, 8-Bicyclo[2.2.1]hept-2-yl-2-phenylamino-8H-pyrido[2,3-d]pyrimidin-7-one] | 225 to 226
30 | O=c1ccc2cnc(Nc3ccccc3)nc2n1CCCOc1ccccc1 [Example 87, 8-(3-Phenoxypropyl)-2-phenylamino-8H-pyrido[2,3-d]pyrimidin-7-one] | 175 to 176
31 | CCN(CC)CCOc1ccc(Nc2ncc3ccc(=O)n(CCCOCc4ccccc4)c3n2)cc1 [Example 116, 8-(3-Benzyloxy-propyl)-2-[4-(2-diethylamino-ethoxy)-phenylamino]-8H-pyrido[2,3-d]pyrimidin-7-one] | 70 to 72
32 | Cn1c(=O)ccc2cnc(NCc3ccccc3)nc21 [Example 63, 2-Benzylamino-8-methyl-8H-pyrido[2,3-d]pyrimidin-7-one] | 160 to 162
33 | CCn1c(=O)ccc2cnc(NC3CCCCC3)nc21 [Example 48, 2-Cyclohexylamino-8-ethyl-8H-pyrido[2,3-d]pyrimidin-7-one] | 135 to 136
34 | O=c1ccc2cnc(Nc3ccc(N4CCCC(CCCN5CCOCC5)C4)cc3)nc2n1C1CC2CCC1C2 (stereo not shown) [Example 262, 8-Bicyclo[2.2.1]hept-2-yl-2-{4-[3-(3-morpholin-4-yl-propyl)-piperidin-1-yl]-phenylamino}-8H-pyrido[2,3-d]pyrimidin-7-one] | 156 to 157
35 | Nc1ncc2ccc(=O)n(C3CCCCC3)c2n1 [Example 226, 2-Amino-8-cyclohexyl-8H-pyrido[2,3-d]pyrimidin-7-one] | 155
36 | Cn1c(=O)ccc2cnc(NCCc3ccccn3)nc21 [Example 66, 8-Methyl-2-(2-pyridin-2-yl-ethylamino)-8H-pyrido[2,3-d]pyrimidin-7-one] | 155 to 156
37 | CCn1c(=O)ccc2cnc(NC(C)(C)C)nc21 [Example 46, 2-tert-Butylamino-8-ethyl-8H-pyrido[2,3-d]pyrimidin-7-one] | 103 to 104
38 | CC(C)n1c(=O)ccc2cnc(Nc3ccc(N4CCC(CCCN5CCOCC5)CC4)cc3)nc21 [Example 260, 8-Isopropyl-2-{4-[4-(3-morpholin-4-yl-propyl)-piperidin-1-yl]-phenylamino}-8H-pyrido[2,3-d]pyrimidin-7-one] | 195 to 196
39 | O=c1ccc2cnc(Nc3ccccc3)nc2n1CC1CCCCC1 [Example 182, 8-Cyclohexylmethyl-2-phenylamino-8H-pyrido[2,3-d]pyrimidin-7-one] | 230 to 231
40 | COc1ccc(CNc2ncc3ccc(=O)n(C4CCCCC4)c3n2)cc1 [Example 225, 8-Cyclohexyl-2-(4-methoxy-benzylamino)-8H-pyrido[2,3-d]pyrimidin-7-one] | 165
41 | CCNc1nc(Nc2ccccc2)ncc1C=CC#N [Example 72, 3-(4-Ethylamino-2-phenylamino-pyrimidin-5-yl)acrylonitrile] | 244 to 246
42 | CCN(CC)c1ccc(Nc2ncc3ccc(=O)n(CC)c3n2)cc1 [Example 78, 2-(4-Diethylamino-phenylamino)-8-ethyl-8H-pyrido[2,3-d]pyrimidin-7-one] | 108 to 109
43 | O=c1ccc2cnc(Nc3ccc(-n4cccn4)cc3)nc2n1C1CCCC1 [Example 191, 8-Cyclopentyl-2-(4-pyrazol-1-yl-phenylamino)-8H-pyrido[2,3-d]pyrimidin-7-one] | 197 to 198
